Results: patent US20240148757A1, “USE OF DIHYDROOROTATE DEHYDROGENASE (DHODH) INHIBITORS TO TARGET FERROPTOSIS IN CANCER THERAPY” (BOARD OF REGENTS, THE UNIVERSITY OF TEXAS SYSTEM, priority 2021, published 2024)

Assays:
GPX4^high HT-1080 cells = test: Cell viability / cell death (ferroptosis) in HT-1080 cells; type: cell-based, human; conditions: 24 hours
Method in brief: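 HT-1080 cells were exposed to GPX4 or DHODH inhibitors for 4 h, and viability was then read by CCK-8 absorbance at 450 nm after 1 h at 37 °C. Separately, cell death was scored as the propidium iodide-positive fraction (5 μg/ml) by flow cytometry, ≥10,000 cells per well.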

[1] = system: GPX4^low patient-derived xenografts (PDXs); test: GPX4^low patient-derived xenograft model; type: in vivo, NSG mice; conditions: liproxstatin-1 10 mg/kg intraperitoneally daily
Description: PDXs were generated in accordance with protocols approved by the Institutional Review Board at The University of Texas MD Anderson Cancer Center. Informed consent was obtained from the patients and the study is compliant with all relevant ethical regulations regarding research involving human participants. All the NOD scid gamma (NSG) mice were purchased from the Experimental Radiation Oncology Breeding Core Facility at MD Anderson Cancer Center and housed in the Animal Care Facility at the Department of Veterinary Medicine and Surgery at MD Anderson Cancer Center. PDX model used in this study was originally obtained from lung cancer PDX platform at MD Anderson Cancer Center. PDX experiments were performed as previously described (Liu, X., et al., Nat Cell Biol 22, 476-486 (2020)). Briefly, PDX tumors in cold DMEM media were minced into fragments 1-2 mm^3 in volume. Then each PDX tumor fragment was subcutaneously inoculated into the dorsal flank of NSG mice. When the tumors reached 50-100 mm 3 in volume, the mice were assigned randomly into different treatment groups for the treatment of brequinar, sulfasalazine, and/or liproxstatin-1 as described under cell line-derived xenograft model. The tumor volume was measured every 3 days until the endpoint and calculated according to the equation volume=length×width^2×½.

HT-1080 xenograft tumors = test: HT-1080 cell line-derived xenograft model; type: in vivo, athymic nude mice; conditions: liproxstatin-1 10 mg/kg intraperitoneally daily
Description: Fresh tumor tissues were fixed in 10% neutral buffered formalin overnight, washed once with PBS, and stored in 70% ethanol at 4° C. The tissues were dehydrated and embedded in paraffin by the Research Histology Core Laboratory (MD Anderson Cancer Center) according to standard protocols. Embedded tissues were sectioned at a thickness of 5 μm for H&E or immunohistochemistry (IHC) analysis. IHC analysis was performed as previously described (Gan, B., et al., Cancer Cell 18, 472-484 (2010); Gan, B., et al., J Cell Biol 175, 121-133 (2006)). Briefly, the primary antibodies, including ki-67 (1:500, 9027s, Cell Signaling Technology), cleaved-caspase 3 (1:500, 9661s, Cell Signaling Technology), or 4-HNE (1:400, ab46545, Abcam) were incubated overnight at 4° C. Staining was performed using the Vectastain elite ABC kit and DAB peroxidase substrate kit (Vector laboratories). Images were randomly taken from the […] (five images per tumor) at ×200 magnification using an Olympus BX43 microscope. All the xenograft experiments were performed in accordance with a protocol approved by the Institutional Animal Care and Use Committee and Institutional Review Board at The University of Texas MD Anderson Cancer Center. The study is compliant with all relevant ethical regulations regarding animal research. Female 4- to 6-week-old athymic nude mice (Foxn1^nu/Foxn1^nu) were purchased from the Experimental Radiation Oncology Breeding Core Facility at MD Anderson Cancer Center and housed in the Animal Care Facility at the Department of Veterinary Medicine and Surgery at MD Anderson. Cancer cell lines were suspended and counted in cold phosphate-buffered saline (PBS), and 5×10^6 HT-1080 or 1×10^7 NCI-H226 cells were injected into mice subcutaneously. When the tumor reached 50-100 mm^3, the mice were assigned randomly into different treatment groups. Brequinar or sulfasalazine was dissolved in dimethyl sulfoxide (DMSO) and diluted in PBS. Brequinar was intraperitoneally injected into mice at a dose of 30 mg/kg every three days. Sulfasalazine was intraperitoneally injected daily at a dose of 100 mg/kg. Liproxstatin-1 diluted in PBS was intraperitoneally injected daily at a dose of 10 mg/kg. The daily injection of brequinar, sulfasalazine, or liproxstatin-1 was continued until the endpoint as indicated in the corresponding figures. The tumor volume was measured every 3 days until the endpoint and calculated according to the equation volume=length×width^2×½.

SMILES: Clc1cccc(CN=C2Nc3ccccc3NC23CCNCC3)c1 [liproxstatin-1]
- rescue of DHODH inhibition-induced cell death (GPX4^high HT-1080 cells; BQR, pretreatment Lip-1 or ZVF 10 μM): the opposite was observed
- protection against GPX4 inhibition (RSL3 or ML162)-induced ferroptosis (GPX4^high HT-1080 cells; DHODH WT, pretreatment 10 μM): rescued
- restoration of brequinar-suppressed tumor growth [1]: could be restored
- restoration of tumor growth suppressed by brequinar and sulfasalazine (HT-1080 xenograft tumors): largely restored
